Results: patent US9919998B2, “Antibacterial agents: Nα-aroyl-N-aryl-phenylalaninamides” (priority 2014, dated 2018)
Values after ≈ are worked out from the molar mass of the structure shown.

How the values were obtained:
Assay type in all cases: cell-based
[1] = test system: Mycobacterium tuberculosis H37Rv; test: Microplate Alamar Blue assay (MABA) MIC, M. tuberculosis; conditions: read-out: MIC Mycobacterium tuberculosis H37Rv
Text: (§1) Minimal inhibitory concentrations (MICs) in Mycobacterium tuberculosis H37Rv and Mycobacterium avium ATCC 25291 were quantified using microplate Alamar Blue assays as described (MABA; [Collins, L. & Franzblau, S. (1997) Microplate Alamar Blue assay versus BACTEC 460 system for high-throughput screening of compounds against Mycobacterium tuberculosis and Mycobacterium avium. Antimicrob. Agents Chemother. 41, 1004-1009]).

[2] = test system: Mycobacterium smegmatis ATCC 19420; test: Broth microdilution MIC, M. smegmatis; conditions: Mycolicibacterium smegmatis, ATCC19420, M. smegmatis ATCC 19420; read-out: MIC Mycobacterium smegmatis ATCC 19420
Text: MICs in Mycobacterium smegmatis ATCC 19420 and Mycobacterium smegmatis ATCC 19420 derivatives were quantified using broth microdilution assays as described [Clinical and Laboratory Standards Institute (CLSI/NCCLS) (2009) Methods for Dilution Antimicrobial Susceptibility Tests for Bacteria That Grow Aerobically; Approved Standard, Eighth Edition. CLIS Document M07-A8 (CLIS, Wayne Pa.)].

[3] = test system: Mycobacterium avium ATCC 25291; test: Microplate Alamar Blue assay (MABA) MIC, M. avium; conditions: ATCC25291, M. avium ATCC 25291
Text: as §1

[4] = test system: Vero E6 ATCC CRL1586 cells; test: Mammalian-cell cytotoxicity, minimal cytotoxic concentration (CellTiter96)
Experimental: Minimal cytotoxic concentrations (MCCs) against mammalian cells in culture were determined using Vero E6 ATCC CRL1586 cells and the CellTiter96 assay kit (Promega, Inc.). […]

| SMILES | MIC [1] | MIC [2] | MIC [3] | MCC mammalian cells Vero E6 ATCC CRL1586 [4] |
| --- | --- | --- | --- | --- |
| CC(=O)N1CCCN(c2ccc(F)cc2NC(=O)C(Cc2ccccc2)NC(=O)c2ccccc2F)CC1 (centres unmarked) [IX-319, N-(1-((2-(4-acetyl-1,4-diazepan-1-yl)-5-fluorophenyl)amino)-1-oxo-3-phenylpropan-2-yl)-2-fluorobenzamide] | 3.12 µg/mL (≈ 6 µM) | 0.39 µg/mL (≈ 0.749 µM) | 6.25 µg/mL (≈ 12 µM) | >100 µg/mL |
| Cc1ccc(F)cc1NC(=O)C(Cc1ccccc1)NC(=O)c1cccc2[nH]ccc12 (centres unmarked) [IX-80, N-(1-((5-fluoro-2-methylphenyl)amino)-1-oxo-3-phenylpropan-2-yl)-1H-indole-4-carboxamide] | 1.56 µg/mL (≈ 3.75 µM) | 0.195 µg/mL (≈ 0.469 µM) | 3.12 µg/mL (≈ 7.52 µM) | 33 µg/mL |
| CCCc1cccc(NC(=O)C(Cc2ccccc2)NC(=O)c2ccccc2)c1C (centres unmarked) [I-127] | > 50 µg/mL | 3.12 µg/mL (≈ 7.8 µM) | > 50 µg/mL | 100 µg/mL |
| O=C(NC(Cc1ccccc1)C(=O)Nc1cccc2c1OCCO2)c1ccccc1F (centres unmarked) [IX-59, N-(1-((2,3-dihydrobenzo[b][1,4]dioxin-5-yl)amino)-1-oxo-3-phenylpropan-2-yl)-2-fluorobenzamide] | 3.12 µg/mL (≈ 7.43 µM) | 0.095 µg/mL (≈ 0.226 µM) | 6.25 µg/mL (≈ 14.9 µM) | 49 µg/mL |
| O=C(NC(Cc1ccccc1)C(=O)Nc1ccccc1N1CCCC1)c1ccccc1 (centres unmarked) [I-192] | 9.4 µg/mL (≈ 22.7 µM) | 0.78 µg/mL (≈ 1.89 µM) | 25 µg/mL (≈ 60.5 µM) | >100 µg/mL |
| O=C(NC(Cc1ccccc1)C(=O)Nc1cccc2c1OCO2)c1ccccc1F (centres unmarked) [IX-99, N-(1-(benzo[d][1,3]dioxol-4-ylamino)-1-oxo-3-phenylpropan-2-yl)-2-fluorobenzamide] | 3.12 µg/mL (≈ 7.69 µM) | 0.195 µg/mL (≈ 0.48 µM) | 6.25 µg/mL (≈ 15.4 µM) | >100 µg/mL |
| COc1cccc(NC(=O)C(Cc2ccccc2)NC(=O)c2cccs2)c1C (centres unmarked) [IX-107, N-(1-((3-methoxy-2-methylphenyl)amino)-1-oxo-3-phenylpropan-2-yl)thiophene-2-carboxamide] | > 50 µg/mL | 0.78 µg/mL (≈ 1.98 µM) | 50 µg/mL (≈ 127 µM) | >100 µg/mL |
| O=C(NC(Cc1ccc(O)cc1)C(=O)Nc1cccc2ccncc12)c1ccccc1 (centres unmarked) [IX-18, N-(3-(4-hydroxyphenyl)-1-(isoquinolin-8-ylamino)-1-oxopropan-2-yl)benzamide] | 6.25 µg/mL (≈ 15.2 µM) | 0.39 µg/mL (≈ 0.948 µM) | 12.5 µg/mL (≈ 30.4 µM) | >100 µg/mL |
| O=C(NC(Cc1ccc(O)cc1)C(=O)Nc1cccc2c1OCCO2)c1ccccc1Br (centres unmarked) [IX-176, 2-bromo-N-(1-((2,3-dihydrobenzo[b][1,4]dioxin-5-yl)amino)-3-(4-hydroxyphenyl)-1-oxopropan-2-yl)benzamide] | 6.25 µg/mL (≈ 12.6 µM) | 3.1 µg/mL (≈ 6.23 µM) | 6.25 µg/mL (≈ 12.6 µM) | 100.0 µg/mL |
| Cc1c(NC(=O)C(Cc2ccccc2)NC(=O)c2ccccc2)cccc1N1CCCC1 (centres unmarked) [I-193] | 6.25 µg/mL (≈ 14.6 µM) | 6.25 µg/mL (≈ 14.6 µM) | 50 µg/mL (≈ 117 µM) | >100 µg/mL |
| O=C(NC(Cc1ccccc1)C(=O)Nc1ccccc1-n1cncn1)c1ccccc1 (centres unmarked) [I-203] | 12.5 µg/mL (≈ 30.4 µM) | 0.78 µg/mL (≈ 1.9 µM) | 50 µg/mL (≈ 122 µM) | >100 µg/mL |
| COc1cccc(NC(=O)C(Cc2ccccc2)NC(=O)c2ccccc2)c1C (centres unmarked) [I-18] | > 50 µg/mL | 0.78 µg/mL (≈ 2.01 µM) | > 50 µg/mL | >100 µg/mL |
| Cc1ccc(F)cc1NC(=O)C(Cc1ccc(O)cc1)NC(=O)c1cccs1 (centres unmarked) [IX-188, N-(1-((5-fluoro-2-methylphenyl)amino)-3-(4-hydroxyphenyl)-1-oxopropan-2-yl)thiophene-2-carboxamide] | 1.56 µg/mL (≈ 3.92 µM) | 0.097 µg/mL (≈ 0.243 µM) | 1.56 µg/mL (≈ 3.92 µM) | 48 µg/mL |
| O=C(NC(Cc1ccccc1)C(=O)Nc1cccc2[nH]ccc12)c1ccccc1 (centres unmarked) [II-27] | 12.5 µg/mL (≈ 32.6 µM) | 0.39 µg/mL (≈ 1.02 µM) | > 50 µg/mL | 41 µg/mL |
| CC(=O)Oc1ccc(CC(NC(=O)c2cccs2)C(=O)Nc2ccccc2N2CCOCC2)cc1 (centres unmarked) [IX-182, 4-(3-((2-morpholinophenyl)amino)-3-oxo-2-(thiophene-2-carbox-amido)propyl)phenyl acetate] | 0.78 µg/mL | 0.097 µg/mL | 3.12 µg/mL | 99 µg/mL |
| O=C(NC(Cc1ccccc1)C(=O)Nc1cc(F)ccc1N1CCOCC1)c1cccs1 (centres unmarked) [IX-160, N-(1-((5-fluoro-2-morpholinophenyl)amino)-1-oxo-3-phenylpropan-2-yl)thiophene-2-carboxamide] | 0.78 µg/mL (≈ 1.72 µM) | 0.097 µg/mL (≈ 0.214 µM) | 0.78 µg/mL (≈ 1.72 µM) | 30 µg/mL |
| O=C(NC(Cc1ccccc1)C(=O)Nc1cccc2c1OC(F)(F)O2)c1ccccc1F (centres unmarked) [IX-122, N-(1-((2,2-difluorobenzo[d][1,3]dioxol-4-yl)amino)-1-oxo-3-phenyl-propan-2-yl)-2-fluorobenzamide] | > 50 µg/mL | 1.56 µg/mL (≈ 3.53 µM) | > 50 µg/mL | 94 µg/mL |
| Cc1ccccc1C(=O)NC(Cc1ccccc1)C(=O)Nc1cc(F)ccc1N1CCOCC1 (centres unmarked) [IX-159, N-(1-((5-fluoro-2-morpholinophenyl)amino)-1-oxo-3-phenylpropan-2-yl)-2-methylbenzamide] | 0.39 µg/mL (≈ 0.845 µM) | 0.047 µg/mL (≈ 0.102 µM) | 0.39 µg/mL (≈ 0.845 µM) | 10 µg/mL |
| O=C(NC(Cc1ccccc1)C(=O)Nc1cccc2[nH]ncc12)c1cccs1 (centres unmarked) [IX-201, N-(1-((1H-indazol-4-yl)amino)-1-oxo-3-phenylpropan-2-yl)thiophene-2-carboxamide] | 25 µg/mL (≈ 64 µM) | 0.09 µg/mL (≈ 0.23 µM) | 12.5 µg/mL (≈ 32 µM) | 47 µg/mL |
| O=C(NC(Cc1ccccc1)C(=O)Nc1cccc2[nH]ccc12)c1ccccc1F (centres unmarked) [IX-91, N-(1-((1H-indol-4-yl)amino)-1-oxo-3-phenylpropan-2-yl)-2-fluorobenzamide] | 50 µg/mL (≈ 125 µM) | 1.56 µg/mL (≈ 3.89 µM) | 50 µg/mL (≈ 125 µM) | 65 µg/mL |
| O=C(NC(Cc1ccccc1)C(=O)Nc1cccc2ncccc12)c1cccs1 (centres unmarked) [IX-85, N-(1-oxo-3-phenyl-1-(quinolin-5-ylamino)propan-2-yl)thiophene-2-carboxamide] | 12.5 µg/mL (≈ 31.1 µM) | 0.39 µg/mL (≈ 0.971 µM) | 25 µg/mL (≈ 62.3 µM) | 40 µg/mL |
| O=C(NC(Cc1ccccc1)C(=O)Nc1cccc2ncsc12)c1ccccc1 (centres unmarked) [IX-234, N-(1-(benzo[d]thiazol-7-ylamino)-1-oxo-3-phenylpropan-2-yl)benz-amide] | 3.12 µg/mL (≈ 7.78 µM) | 0.39 µg/mL (≈ 0.971 µM) | 3.12 µg/mL (≈ 7.78 µM) | 80 µg/mL |
| O=C(NC(Cc1ccccc1)C(=O)Nc1ccccc1N1CCNCC1)c1cccc2[nH]ccc12 (centres unmarked) [IX-242, N-(1-oxo-3-phenyl-1-((2-(piperazin-1-yl)phenyl)amino)propan-2-yl)-1H-indole-4-carboxamide] | 3.12 µg/mL (≈ 6.68 µM) | 0.04 µg/mL (≈ 0.0855 µM) | 0.78 µg/mL (≈ 1.67 µM) | 12 µg/mL |
| O=C(NC(Cc1ccccc1)C(=O)Nc1ccccc1N1CCCC1)c1cccs1 (centres unmarked) [IX-105, N-(1-oxo-3-phenyl-1-((2-(pyrrolidin-1-yl)phenyl)amino)propan-2-yl)thiophene-2-carboxamide] | 6.25 µg/mL (≈ 14.9 µM) | 0.78 µg/mL (≈ 1.86 µM) | 25 µg/mL (≈ 59.6 µM) | >100 µg/mL |
| Cc1ccc(Cl)cc1NC(=O)C(Cc1ccc(O)cc1)NC(=O)c1cccs1 (centres unmarked) [IX-94, N-(1-((5-chloro-2-methylphenyl)amino)-3-(4-hydroxyphenyl)-1-oxopropan-2-yl)thiophene-2-carboxamide] | 3.12 µg/mL (≈ 7.53 µM) | 0.78 µg/mL (≈ 1.88 µM) | 3.12 µg/mL (≈ 7.53 µM) | 58 µg/mL |
| Cc1ccc(F)cc1NC(=O)C(Cc1ccc(O)cc1)NC(=O)c1ccccc1C (centres unmarked) [IX-186, N-(1-((5-fluoro-2-methylphenyl)amino)-3-(4-hydroxyphenyl)-1-oxopropan-2-yl)-2-methylbenzamide] | 1.56 µg/mL (≈ 3.84 µM) | 0.39 µg/mL (≈ 0.96 µM) | 3.12 µg/mL (≈ 7.69 µM) | 78 µg/mL |
| Cc1ccccc1C(=O)NC(Cc1ccccc1)C(=O)Nc1ccccc1OC(F)F (centres unmarked) [IX-120, N-(1-((2-(difluoromethoxy)phenyl)amino)-1-oxo-3-phenylpropan-2-yl)-2-methylbenzamide] | 3.12 µg/mL (≈ 7.36 µM) | 0.19 µg/mL (≈ 0.448 µM) | 3.12 µg/mL (≈ 7.36 µM) | >100 µg/mL |
| O=C(NC(Cc1ccccc1)C(=O)Nc1cccc2c1OCCO2)c1cccc2[nH]ccc12 (centres unmarked) [IX-45, N-(1-((2,3-dihydrobenzo[b][1,4]dioxin-5-yl)amino)-1-oxo-3-phenyl-propan-2-yl)-1H-indole-4-carboxamide] | 3.12 µg/mL (≈ 7.08 µM) | 0.39 µg/mL (≈ 0.883 µM) | 6.25 µg/mL (≈ 14.2 µM) | 71 µg/mL |
| O=C(NC(Cc1ccccc1)C(=O)Nc1ccccc1OC(F)F)c1ccccc1Cl (centres unmarked) [IX-119, 2-chloro-N-(1-((2-(difluoromethoxy)phenyl)amino)-1-oxo-3-phenylpropan-2-yl)benzamide] | 3.12 µg/mL (≈ 7.02 µM) | 0.39 µg/mL (≈ 0.877 µM) | 12.5 µg/mL (≈ 28.1 µM) | 5.6 µg/mL |
